Data from patent US20250230193A1, “CYCLIC COMPOUND HAVING SELECTIVE KRAS INHIBITORY EFFECT ON HRAS AND NRAS” (CHUGAI SEIYAKU KABUSHIKI KAISHA, priority 2022, published 2025).
Where a SMILES comes first, the peptide text is derived from it. Bridges are numbered along the chain shown (N, C = ends). [ ]: non-standard residue; d: D form. The star is where a group is joined. hPhe(3-Cl-4-CF3) = N[C@@H](CCc1ccc(C(F)(F)F)c(Cl)c1)C(=O)O; NPrPhe(4-CF3) = CCCN[C@@H](Cc1ccc(C(F)(F)F)cc1)C(=O)O; NMeGly(cPent) = CN[C@H](C(=O)O)C1CCCC1; NMeD = CN[C@@H](CC(=O)O)C(=O)O; NMeL = CN[C@@H](CC(C)C)C(=O)O; Oxazolidin(3-yl) = C1CN(*)CO1; NMeA = CN[C@@H](C)C(=O)O; Ac5c = NC1(C(=O)O)CCCC1; Aze = O=C(O)[C@@H]1CCN1; Sar = CNCC(=O)O

Key:
[1] = target: GDP-bound NRAS wild-type protein (Homo sapiens, UniProt P01111); assay: Binding to NRAS by surface plasmon resonance (SPR), Single Cycle Kinetics
GDP-bound NRAS wild-type protein, sequence (P01111 whole entry): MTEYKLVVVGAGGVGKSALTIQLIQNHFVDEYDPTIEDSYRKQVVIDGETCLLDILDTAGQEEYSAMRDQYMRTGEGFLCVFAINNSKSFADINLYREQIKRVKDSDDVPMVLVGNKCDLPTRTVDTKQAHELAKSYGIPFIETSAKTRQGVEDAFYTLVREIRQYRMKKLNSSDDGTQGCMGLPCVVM

[2] = target: GDP-bound HRAS wild-type protein (Homo sapiens, UniProt P01112); assay: Binding to HRAS by surface plasmon resonance (SPR), Single Cycle Kinetics
GDP-bound HRAS wild-type protein, sequence (P01112 whole entry): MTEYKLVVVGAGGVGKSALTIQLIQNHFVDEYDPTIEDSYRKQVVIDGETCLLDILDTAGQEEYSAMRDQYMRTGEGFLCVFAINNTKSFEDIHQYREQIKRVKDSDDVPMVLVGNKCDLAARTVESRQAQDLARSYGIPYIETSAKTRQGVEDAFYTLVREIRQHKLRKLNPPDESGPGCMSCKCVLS

[3] = KD ratio NRAS/KRAS, class symbols
[4] = KD ratio HRAS/KRAS, class symbols
[5] = KD ratio, GDP-bound NRAS wild-type vs GDP-bound KRAS wild-type, SPR
[6] = KD ratio, GDP-bound HRAS wild-type vs GDP-bound KRAS wild-type, SPR

CCCC[C@H]1C(=O)N[C@@H]([C@@H](C)CC)C(=O)N(C)CC(=O)N(C)[C@H]2C/C=C\CCN(C2=O)[C@@H](Cc2ccc(C(F)(F)F)cc2)C(=O)N(C)CC(=O)N[C@@H](CCc2ccc(C(F)(F)F)c(Cl)c2)C(=O)N2C[C@H](OCC)C[C@H]2C(=O)NC2(CCC2)C(=O)N(C)[C@@H](C2CCCC2)C(=O)N(C)[C@H](C(=O)N(C)CC)CC(=O)N1C [PP2841]
NRAS/KRAS (ratio of KD value with respect to GDP-bound NRAS wild-type protein to KD value with respect to KRAS) [1, 3]: A (a compound having 10 or more and less than 20 is denoted as A)
HRAS/KRAS (ratio of KD value with respect to GDP-bound HRAS wild-type protein to KD value with respect to KRAS) [2, 4]: A (a compound having 10 or more and less than 20 is denoted as A)

CCO[C@@H]1C[C@H]2C(=O)NC3(CCC3)C(=O)N(C)[C@@H](C3CCCC3)C(=O)N(C)[C@H](C(=O)N(C)C)CC(=O)N(C)[C@@H](CC(F)F)C(=O)N[C@@H]([C@@H](C)CC)C(=O)N(C)CC(=O)N(C)[C@H]3C/C=C\CCN(C3=O)[C@@H](Cc3ccc(C(F)(F)F)cc3)C(=O)N(C)CC(=O)N[C@@H](CCc3cc(F)c(C(F)(F)F)c(F)c3)C(=O)N2C1 [PP1120]
NRAS/KRAS (ratio of KD value with respect to NRAS to KD value with respect to KRAS) [1, 5]: A (a compound having 10 or more and less than 20 is denoted as A)
HRAS/KRAS (ratio of KD value with respect to HRAS to KD value with respect to KRAS) [2, 6]: A (a compound having 10 or more and less than 20 is denoted as A)

C#CCN1CC(=O)N(C)[C@H]2C/C=C\CCN(C2=O)[C@@H](Cc2ccc(C)cc2)C(=O)N(C)CC(=O)N[C@@H](CCc2cc(F)c(C(F)(F)F)c(F)c2)C(=O)N2C[C@H](OCC)C[C@H]2C(=O)NC2(CC(C)(C)C2)C(=O)N(C)[C@@H](C2CCCC2)C(=O)N(C)[C@H](C(=O)N(C)C)CC(=O)N(C)[C@@H](CCC)C(=O)N[C@@H](CC(C)C)C1=O [PP2512]
NRAS/KRAS (ratio of KD value with respect to NRAS to KD value with respect to KRAS) ([1]; SPR, GDP-bound NRAS wild-type vs GDP-bound KRAS wild-type): A (a compound having 10 or more and less than 20 is denoted as A)
HRAS/KRAS (ratio of KD value with respect to HRAS to KD value with respect to KRAS) ([2]; SPR, GDP-bound HRAS wild-type vs GDP-bound KRAS wild-type): A (a compound having 10 or more and less than 20 is denoted as A)

CCO[C@@H]1C[C@H]2C(=O)NC3(CCC3)C(=O)N(C)[C@@H](C3CCCC3)C(=O)N(CCC3CCCC3)[C@H](C(=O)N3CCOCC3)CC(=O)N(C)[C@@H](CC(C)C)C(=O)N[C@@H]([C@@H](C)CC)C(=O)N(C)CC(=O)N(C)[C@H]3CCCCCN(C3=O)[C@@H](Cc3ccc(C(F)(F)F)cc3)C(=O)N(C)CC(=O)N[C@@H](CCc3cc(F)c(C(F)(F)F)c(F)c3)C(=O)N2C1 [PP0641]
NRAS/KRAS (ratio of KD value with respect to GDP-bound NRAS wild-type protein to KD value with respect to KRAS) ([1]; KD ratio NRAS/KRAS, SPR): A (a compound having 10 or more and less than 20 is denoted as A)
HRAS/KRAS (ratio of KD value with respect to GDP-bound HRAS wild-type protein to KD value with respect to KRAS) ([2]; KD ratio HRAS/KRAS, SPR): A (a compound having 10 or more and less than 20 is denoted as A)

CC[C@H](C)[C@@H]1NC(=O)[C@H](CC(C)C)N(C)C(=O)C[C@@H](C(=O)N(C)C)N(C)C(=O)[C@H](C2CCCC2)N(C)C(=O)C2(CCC2)NC(=O)[C@@H]2C[C@H](C)CN2C(=O)[C@H](CCc2ccc(C(F)(F)F)c(OC)c2)NC(=O)CN(C)C(=O)[C@H](Cc2ccc(C)cc2)N2CC/C=C\C[C@@H](C2=O)N(C)C(=O)CN(C)C1=O [PP1865]
NRAS/KRAS (ratio of KD value for NRAS to KD value for KRAS) [1, 5]: A (a compound having 10 or more and less than 20 is denoted as A)
HRAS/KRAS (ratio of KD value for HRAS to KD value for KRAS) [2, 6]: B (a compound having 3 or more and less than 10 is denoted as B)

CCCN1C(=O)[C@@H]2CCN2C(=O)[C@H](C)N(C)C(=O)[C@H]([C@@H](C)CC)NC(=O)[C@H](CC(C)C)N(C)C(=O)C[C@@H](C(=O)N2CCOC2)N(C)C(=O)[C@H](C2CCCC2)N(C)C(=O)C2(CCCC2)NC(=O)[C@@H]2CCCN2C(=O)[C@H](CCc2ccc(C(F)(F)F)c(Cl)c2)NC(=O)CN(C)C(=O)[C@@H]1Cc1ccc(C(F)(F)F)cc1 [PP0183] ([NMeL]I[NMeA][Aze][NPrPhe(4-CF3)][Sar][hPhe(3-Cl-4-CF3)]P[Ac5c][NMeGly(cPent)][NMeD]-{Oxazolidin(3-yl)}; lactam N-11)
NRAS/KRAS (ratio of KD for GDP-bound NRAS wild-type to KD for KRAS) ([1]; KD ratio NRAS/KRAS, SPR): C (A compound having a KD ratio of 0.1 or more and less than 3 is denoted as C)
HRAS/KRAS (ratio of KD for GDP-bound HRAS wild-type to KD for KRAS) ([2]; KD ratio HRAS/KRAS, SPR): B (a compound having 3 or more and less than 10 is denoted as B)

CC[C@H](C)[C@@H]1NC(=O)[C@@H]2CCC/C=C/c3ccc(cc3)C[C@@H](C(=O)N(C)CC(=O)N[C@@H](CCc3ccc(Cl)c(Cl)c3)C(=O)N3C[C@H](OC4CCC4)C[C@H]3C(=O)NC3(CC(C)(C)C3)C(=O)N(C)[C@@H](C3CCCC3)C(=O)N(C)[C@H](C(=O)N3CCCC3)CC(=O)N2C)N2CC/C=C\C[C@@H](C2=O)N(C)C(=O)CN(C)C1=O [PP3053]
NRAS/KRAS (ratio of KD value with respect to GDP-bound NRAS wild-type protein to KD value with respect to KRAS) ([1]; KD ratio NRAS/KRAS, SPR, GDP-bound wild-type proteins): A (a compound having 10 or more and less than 20 is denoted as A)
HRAS/KRAS (ratio of KD value with respect to GDP-bound HRAS wild-type protein to KD value with respect to KRAS) ([2]; KD ratio HRAS/KRAS, SPR, GDP-bound wild-type proteins): A (a compound having 10 or more and less than 20 is denoted as A)

CCO[C@@H]1C[C@H]2C(=O)NC3(CCC3)C(=O)N(C)[C@@H](C3CCCC3)C(=O)N(C)[C@H](C(=O)N(C)CC)CC(=O)N(C)[C@@H](CC(C)C)C(=O)N[C@@H]([C@@H](C)CC)C(=O)N(C)CC(=O)N(C)[C@H]3C/C=C\CCN(C3=O)[C@@H](Cc3ccc(C(F)(F)F)cc3)C(=O)N(C)CC(=O)N[C@@H](CCc3ccc(C(F)(F)F)c(Cl)c3)C(=O)N2C1 [PP2847]
NRAS/KRAS (ratio of KD value with respect to GDP-bound NRAS wild-type protein to KD value with respect to KRAS) [1, 3]: A (a compound having 10 or more and less than 20 is denoted as A)
HRAS/KRAS (ratio of KD value with respect to GDP-bound HRAS wild-type protein to KD value with respect to KRAS) [2, 4]: A (a compound having 10 or more and less than 20 is denoted as A)
